# In PMC7216583 (Parasites & Vectors, 2020):
# Counter-ions that a name gives are not always drawn. Like-named read-outs stand apart in the source and are kept apart here.
# How the values were obtained:
# [1] = target: transient receptor potential vanilloid-1 (TRPV1); set-up: method as in vendor brief description; conditions: ref vendor brief description; cited from earlier work
# [2] = test system: Toxoplasma gondii RH-2F tachyzoites; assay: microbe, parasite or virus in culture; conditions: 72 h
# [3] = target: P-glycoprotein; set-up: method as in vendor brief description; conditions: ref vendor brief description; cited from earlier work
# [4] = test system: cytomegalovirus (CMV); set-up: method as in vendor brief description; conditions: target not stated with the value; ref vendor brief description; cited from earlier work
# [5] = test system: PDE4; set-up: method as in vendor brief description; conditions: ref vendor brief description; cited from earlier work
# [6] = test system: TNF-α; set-up: method as in vendor brief description; conditions: ref vendor brief description; cited from earlier work
# [7] = test system: B-Raf; set-up: method as in vendor brief description; conditions: ref vendor brief description; cited from earlier work
# [8] = test system: c-Raf; set-up: method as in vendor brief description; conditions: ref vendor brief description; cited from earlier work
# [9] = test system: Abl; set-up: method as in vendor brief description; conditions: ref vendor brief description; read-out: IC50 Abl-1; cited from earlier work
# [10] = test system: CSF-1R; set-up: method as in vendor brief description; conditions: ref vendor brief description; cited from earlier work
# [11] = test system: non-muscle myosin II ATPases; set-up: method as in vendor brief description; conditions: ref vendor brief description; cited from earlier work
# [12] = test system: SGLT2; set-up: method as in vendor brief description; conditions: ref vendor brief description; cited from earlier work
# [13] = in vitro; conditions: human, Host viability (%) mean
# [14] = test system: HDAC10; set-up: method as in library vendor description; conditions: ref library vendor description; cited from earlier work
# [15] = test system: B-RafV600E; set-up: method as in library vendor description; conditions: ref library vendor description; cited from earlier work
# [16] = test system: CXCR4; set-up: method as in vendor brief description; conditions: ref vendor brief description; cited from earlier work
# [17] = test system: CXCL12-mediated chemotaxis; conditions: read-out: IC50 CXCL12-mediated chemotaxis; ref vendor brief description; cited from earlier work
# [18] = target: endothelin receptor-A; set-up: method as in vendor brief description; conditions: ref vendor brief description; cited from earlier work
# [19] = test system: ET-B; set-up: method as in vendor brief description; conditions: ref vendor brief description; read-out: IC50 endothelin (ET) B receptor; cited from earlier work
# [20] = target: influenza viral neuraminidase; set-up: method as in vendor catalog number S2716; conditions: median; compound library brief description; ref vendor catalog number S2716; read-out: IC50 of median (influenza viral neuraminidase inhibitor); cited from earlier work
# [21] = test system: HDAC; set-up: method as in library vendor description; conditions: ref library vendor description; cited from earlier work
# [22] = test system: 5-HT2B; set-up: method as in vendor brief description; conditions: ref vendor brief description; cited from earlier work
# [23] = test system: Pim1; conditions: read-out: IC50 Pim1; ref vendor brief description; cited from earlier work
# [24] = test system: PPARδ; set-up: method as in vendor brief description; conditions: ref vendor brief description; cited from earlier work
# [25] = test system: ALK; set-up: method as in library vendor description; conditions: ref library vendor description; cited from earlier work
# [26] = target: gastric H+, K+-ATPase; set-up: method as in vendor brief description; conditions: at pH 6.5; ref vendor brief description; cited from earlier work
# [27] = target: S. aureus ribosomes; set-up: method as in vendor catalog number S4056; conditions: similar potencies on both ribosomes; compound library brief description; ref vendor catalog number S4056; read-out: Kd (binds to S. aureus ribosomes); cited from earlier work
# [28] = test system: IGF-1R; set-up: method as in library vendor description; conditions: ref library vendor description; cited from earlier work
# [29] = test system: IR; set-up: method as in library vendor description; conditions: ref library vendor description; cited from earlier work
# [30] = target: 5-HT7 receptor; set-up: method as in vendor brief description; conditions: ref vendor brief description; cited from earlier work
# [31] = test system: 5-HT3A; set-up: method as in vendor brief description; conditions: ref vendor brief description; read-out: IC50 5-HT(3A); cited from earlier work
# [32] = test system: 5-HT1A; set-up: method as in vendor brief description; conditions: ref vendor brief description; cited from earlier work
# [33] = test system: 5-HT(1B); set-up: method as in vendor brief description; conditions: ref vendor brief description; cited from earlier work
# [34] = test system: SERT; set-up: method as in vendor brief description; conditions: ref vendor brief description; cited from earlier work
# [35] = target: epidermal growth factor receptor (EGFR); set-up: method as in vendor brief description; conditions: ref vendor brief description; read-out: IC50 EFGR; cited from earlier work
# [36] = test system: JAK1; set-up: method as in vendor brief description; conditions: ref vendor brief description; cited from earlier work
# [37] = test system: JAK3; set-up: method as in vendor brief description; conditions: ref vendor brief description; cited from earlier work
# [38] = test system: TGM2; set-up: method as in vendor brief description; conditions: ref vendor brief description; cited from earlier work
# [39] = test system: Toxoplasma gondii RH-2F tachyzoites; conditions: 72 h, 5 μM
# [40] = target: αvβ3 receptor; set-up: method as in vendor brief description; conditions: ref vendor brief description; cited from earlier work
# [41] = target: αvβ5 receptor; set-up: method as in vendor brief description; conditions: ref vendor brief description; cited from earlier work
# [42] = target: cannabinoid type 1 receptor; set-up: method as in vendor brief description; conditions: ref vendor brief description; cited from earlier work
# [43] = test system: hedgehog; set-up: method as in library vendor description; conditions: ref library vendor description; cited from earlier work
# [44] = test system: P-gp; set-up: method as in library vendor description; conditions: ref library vendor description; cited from earlier work
# [45] = read-out: Parasite inhibition (%) mean, preliminary screen of compound library, mean
# [46] = read-out: Parasite inhibition (%) mean, preliminary screen, mean
smiles,measurement,setting,value
CC(=O)Nc1nc2c(Oc3cc(-c4ccc(C(F)(F)F)cc4)ncn3)cccc2s1 [AMG-517],IC50,[1],< 10 nM
same,inhibition of growth at 5 µM,[2]; [45],0.6%
COc1cc2c(cc1OC)CN(CCc1ccc(NC(=O)c3cc(OC)c(OC)cc3NC(=O)c3cnc4ccccc4c3)cc1)CC2 [Tariquidar],Kd,[3],5.1 nM
same,inhibition of growth at 5 µM,[2]; [45],0.4%
Nc1ccn(C[C@@H](CO)OCP(=O)(O)O)c(=O)n1 [Cidofovir (Vistide)],IC50,[4],940 nM
same,inhibition of growth at 5 µM,[2]; [45],0.8%
CCOc1cc([C@@H](CS(C)(=O)=O)N2C(=O)c3cccc(NC(C)=O)c3C2=O)ccc1OC [Apremilast (CC-10004)],IC50,[5],74 nM
same,IC50,[6],77 nM
same,inhibition of growth at 5 µM,[2]; [45],-1.4%
COc1cc2ncnc(Oc3cccc(NC(=O)Nc4cc(C(C)(C)C(F)(F)F)on4)c3)c2cc1OC [CEP-32496],IC50,[7],36 nM
same,IC50,[8],39 nM
same,IC50,[9],3 nM
same,IC50,[10],9 nM
same,inhibition of growth at 5 µM,[2]; [45],0%
Cc1ccc2c(c1)C(=O)[C@]1(O)CCN(c3ccccc3)C1=N2 [(−)-Blebbistatin],IC50,[11],500 to 5000 nM
same,inhibition of growth at 5 µM,[2]; [45],-56.7%
OC[C@H]1O[C@@H](c2ccc(Cl)c(Cc3ccc(O[C@H]4CCOC4)cc3)c2)[C@H](O)[C@@H](O)[C@@H]1O [Empagliflozin (BI10773)],IC50,[12],3.1 nM
same,inhibition of growth at 5 µM,[2]; [45],3.8%
Cn1cc(CNCC2CCN(c3ncc(C(=O)NO)cn3)CC2)c2ccccc21 [JNJ-26481585],viability at 72 h,[13],70.5%
same,IC50,[14],0.46 nM
same,inhibition of growth at 5 µM,[2]; [46],79.4%
OCCn1cc(-c2ccc3c(c2)CC/C3=N\O)c(-c2ccncc2)n1 [GDC-0879],IC50,[15],0.13 nM
same,inhibition of growth at 5 µM,[2]; [46],7.9%
c1cc(CN2CCCNCCNCCCNCC2)ccc1CN1CCCNCCNCCCNCC1 [Plerixafor (AMD3100)],IC50,[16],44 nM
same,IC50,[17],5.7 nM
same,inhibition of growth at 5 µM,[2]; read-out: Parasite inhibition (%) mean,12.9%
CCCNS(=O)(=O)Nc1ncnc(OCCOc2ncc(Br)cn2)c1-c1ccc(Br)cc1 [Macitentan],IC50,[18],0.5 nM
same,IC50,[19],391 nM
same,inhibition of growth at 5 µM,[2]; [45],12.3%
CCC(CC)[C@H](NC(C)=O)[C@@H]1[C@H](O)[C@@H](C(=O)O)C[C@H]1NC(=N)N [Peramivir Trihydrate],IC50,[20],0.09 nM
same,inhibition of growth at 5 µM,[2]; [45],-0.4%
"O=C(/C=C/c1ccc(CN(CCO)CCc2c[nH]c3ccccc23)cc1)NO [LAQ824 (NVP-LAQ824, Dacinostat)]",IC50,[21],32 nM
same,inhibition of growth at 5 µM,[2]; [46],60.4%
N#Cc1cc(CN2CCC(Nc3ncnc4sc(Cl)cc34)CC2)ccc1F [PRX-08066],IC50,[22],3.4 nM
same,inhibition of growth at 5 µM,[2]; [45],40.5%
O=C1NC(=O)/C(=C\c2cccc(C(F)(F)F)c2)S1 [SMI-4a],IC50,[23],17 nM
same,inhibition of growth at 5 µM,[2]; [45],8.9%
O=C(NCCS(=O)(=O)c1ccc(C(F)(F)F)cn1)c1ccc(Cl)cc1 [GSK3787],pIC50 PPARδ,[24],GSK3787 is as a potent and selective antagonist of PPARδ with pIC50 of 6.6.
same,inhibition of growth at 5 µM,[2]; [45],9%
COc1cc(N2CCC(N3CCN(C)CC3)CC2)ccc1Nc1ncc(Cl)c(Nc2ccccc2S(=O)(=O)C(C)C)n1 [TAE684 (NVP-TAE684)],IC50,[25],[…]
same,inhibition of growth at 5 µM,[2]; [46],6.8%
CNCc1cc(-c2ccccc2F)n(S(=O)(=O)c2cccnc2)c1 [TAK-438],IC50,[26],19 nM
same,inhibition of growth at 5 µM,[2]; [45],-9.6%
C=C[C@]1(C)C[C@@H](OC(=O)CS[C@@H]2C[C@H]3CC[C@@H](C2)N3C)[C@]2(C)[C@H](C)CC[C@]3(CCC(=O)[C@H]32)[C@@H](C)[C@@H]1O [Retapamulin],Kd,[27],3 nM
CCc1cc(Nc2nccc(-c3c(-c4ccc(OC)c(C(=O)Nc5c(F)cccc5F)c4)nc4ccccn34)n2)c(OC)cc1N1CCC(N2CCN(S(C)(=O)=O)CC2)CC1 [GSK1904529A],viability at 72 h,[13],76.8%
same,IC50,[28],27 nM
same,IC50,[29],25 nM
same,inhibition of growth at 5 µM,[2]; [46],70.6%
Cc1ccc(Sc2ccccc2N2CCNCC2)c(C)c1 [Vortioxetine (Lu AA21004) hydrobromide],IC50,[30],19 nM
same,IC50,[31],3.7 nM
same,IC50,[32],15 nM
same,IC50,[33],33 nM
same,IC50,[34],1.6 nM
same,inhibition of growth at 5 µM,[2]; [45],66.8%
CC(C)N(CCC(=O)c1ccc2ccccc2c1)Cc1ccccc1 [ZM 39923 HCl],IC50,[35],5600 nM
same,IC50,[36],4400 nM
same,IC50,[37],7100 nM
same,IC50,[38],10 nM
same,inhibition of growth at 5 µM,[2]; [45],13.9%
"CC(C)[C@H]1C(=O)N[C@@H](CCCNC(=N)N)C(=O)NCC(=O)N[C@@H](CC(=O)O)C(=O)N[C@H](Cc2ccccc2)C(=O)N1C [Cilengitide (EMD 121974, NSC 707544)]",Parasite inhibition (%) mean,[39],4.9%
same,IC50,[41],79 nM
CCNC1(C(N)=O)CCN(c2ncnc3c2nc(-c2ccccc2Cl)n3-c2ccc(Cl)cc2)CC1 [Otenabant (CP-945598) HCl],Ki,[42],0.7 nM
same,inhibition of growth at 5 µM,[2]; [45],0.3%
CS(=O)(=O)c1ccc(C(=O)Nc2ccc(Cl)c(-c3ccccn3)c2)c(Cl)c1 [Vismodegib (GDC-0449)],IC50,[43],3 nM
same,inhibition of growth at 5 µM,[2]; [46],25.5%
